# “Also recorded” adds a separate entry of the source. Ends that are not written are not given here.
# Assays:
# [1] = test system: P388D1 cells (murine monocyte-macrophage antigen presenting cell line); experiment: TRANSloading of murine macrophages: uptake of fluorescein-tagged antigenic peptide with carrier peptide, flow cytometry; format: cell-based; settings: Example 1, FIG. 1; 2 μg antigenic peptide; carrier at 101.7, 50.9 and 5.09 nmol positive charges; 1 h at 37° C.
# From the text: To test if the (synthetic antimicrobial) peptide KLKLLLLLKLK (SEQ ID NO: 1) is able to function as “carrier-peptide” for antigens, to TRANSload APCs in vitro, which means enhancing the antigen uptake into APCs, a fluorescently labelled peptide was used as antigenic peptide. It was mixed with diverse concentrations of KLKLLLLLKLK (SEQ ID NO: 1) and other previously described “carrier-peptides” as indicated.
# To compare the efficiency of peptide delivery of these diverse “carrier-peptides”, the amount of peptide uptake into APCs was monitored by incubating P388D1 cells (murine monocyte-macrophage antigen presenting cell line; purchased from ATCC (TIB-63)) for 1 h at 37° C. with a constant amount of fluorescein-tagged peptide alone or in combination with diverse “carrier-peptides” at concentrations indicated. Before analysing the cells by flow cytometry, the cells were washed extensively to remove free peptide. The relative amount of fluorescein-tagged peptide taken up by the cells was measured by flow cytometry.
# The antigenic peptide used is an influenza-haemagglutinin-derived MHC class I (Kd) binding peptide (Buschle, M. (1997)). 2 μg of this fluorescein-tagged antigenic peptide (LFEAIEGFI) (SEQ ID NO:22) were mixed with 3 different amounts of each carrier peptide tested at concentrations representing 101.7, 50.9 and 5.09 nmol positive charges. […]
# [2] = test system: IFN-γ-producing specific cells (lymph node cells); experiment: Induction of peptide-specific T cell responses in vivo, IFN-γ ELISpot of lymph node cells after vaccination with TRP-2 peptide; design: species or system mice (C57BL/6)
# Description: For testing the ability of the (synthetic antimicrobial) peptide KLKLLLLLKLK (SEQ ID NO: 1) to enhance the induction of peptide-specific T cell responses in vivo, groups of 4 mice (C57BL/6, female, 8 weeks of age, H-2b) were injected subcutaneously into the flank 3 times (days 0, 28, and 56), with an antigenic melanoma peptide (100 μg) derived from TRP-2 (mouse tyrosinase related protein-2) alone or in combination with either poly-Larginine or the (synthetic antimicrobial) peptide KLKLLL. LKLK (SEQ ID NO: 1) as “carrier peptide”. The amounts of the (synthetic antimicrobial) peptide KLKLLLLLKLK (SEQ ID NO: 1) used represent four different amounts at concentrations representing the equal amount (100 μg) of poly-L-arginine in terms of μg, the equal (168 μg), the double (336 μg) and the triple (504 μg) amount of poly-L-arginine in terms of positive charges. The groups of mice were injected as follows (amounts indicated/per mouse). • (1) 100 μg peptide • (2) 100 μg peptide+100 μg poly-L-arginine (pR 60) • (3) 100 μg peptide+100 μg KLKLLLLLKLK (SEQ ID NO: 1) • (4) 100 μg peptide+168 μg KLKLLLLLKLK (SEQ ID NO: 1) • (5) 100 μg peptide+336 μg KLKLLLLLKLK (SEQ ID NO: 1) • (6) 100 μg peptide+504 μg KLKLLLLLKLK (SEQ ID NO: 1) […]
# Staphylococcus aureus = settings: Staphylococcus aureus-infected mice; cited from earlier work
# human neutrophils = settings: via cell surface calreticulin; cited from earlier work
substance,measurement,setting,value
KLKLLLLLKLK [synthetic antimicrobial peptide used as carrier peptide/adjuvant],fluorescence of TRANSloaded cells (uptake of fluorescein-tagged peptide LFEAIEGFI),[1],high and intense fluorescence
same,"IFN-γ-producing T cells specific for the carrier peptide itself, ELISpot",[2]; ELISpot-assay,does not elicit IFN-γ-producing peptide-specific T cells
same,"IFN-γ-producing specific cells (TRP-2 peptide-specific), ELISpot","[2]; FIG. 3, s.c. days 0, 28, 56, 100 μg TRP-2 peptide plus 100-504 μg carrier, 12 days after 3rd vaccination, versus peptide alone or with poly-L-arginine",many more IFN-γ-producing specific cells; also recorded: enhances the induction of peptide-specific T cell responses in vivo
"KLKLLLLLKLK-NH2 [synthetic antimicrobial peptide, amidated form]",chemotherapeutic activity,Staphylococcus aureus,significant chemotherapeutic activity
same,superoxide anion (O2−) production,human neutrophils,activated to produce the superoxide anion

# Source: patent US8900564B2, “Vaccine composition comprising an antigen and a peptide having adjuvant properties” (Valneva Austria GmbH, priority 2000, dated 2014)
